Data from US20240368163A1, “COMPOUNDS AND METHODS FOR MODULATING SPLICING” (REMIX THERAPEUTICS INC., priority 2021, published 2024).
Read-outs that look alike come from different tables or passages of the source.

How the values were obtained:
Assay type in all cases: cell-based, human
Target C [1] = assay: HiBiT protein abundance assay, Target C; details: modified K562 cells
Summary of the method: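 Target protein levels in engineered HiBiT-tagged cells were read by lytic luminescence after 24 h compound exposure (10000 cells/well, 10 μM top final, 3-fold steps, ≤0.25% DMSO). Unmodified K562 served as baseline; four-parameter regression gave concentration reducing abundance to 50%.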

Target C [2] = assay: Splicing RT-qPCR panel, Target C canonical junction (CJ) mRNA; details: read-out: Target C IC50 (decrease in CJ mRNA levels)
Summary of the method: (§1)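 Splice switching is measured in A673 or K562 cells after 24 h compound exposure (maximum 10 uM, 3-fold steps). Canonical and alternative junction mRNA levels are quantified by RT-qPCR relative to housekeeper and DMSO.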

MYB [3] = assay: HiBiT protein abundance assay, MYB; details: modified K562 cells
Summary of the method: (§2)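 Protein abundance measured by Nano-Glo HiBiT lytic luminescence after 24 h compound exposure of modified K562 lines, 10000 cells/well, top final dose 10 μM in 3-fold steps. Four-parameter fit of control-normalised response gives concentration reducing abundance to 50% of untreated.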

HTT [4] = assay: HiBiT protein abundance assay, HTT; details: modified K562 cells
Summary of the method: as §2

SMN2 = assay: Splicing RT-qPCR panel, SMN2 canonical junction (CJ) mRNA; details: read-out: SMN2 IC50 (decrease in CJ mRNA levels)
Summary of the method: as §1

HTT [5] = assay: Splicing RT-qPCR assay, HTT mRNA canonical junction (CJ) and alternative junction (AJ); details: for AC50: increase in AJ mRNA
Summary of the method: as §1

MYB [6] = assay: Splicing RT-qPCR assay, MYB mRNA canonical junction (CJ) and alternative junction (AJ); details: for AC50: increase in AJ mRNA
Summary of the method: as §1

[7] = Homo sapiens, K562, 24 h, Table 13B
[8] = Homo sapiens, gene panel, CJ qPCR, protocol of Example 142
[9] = Homo sapiens, gene panel, CJ qPCR, protocol of Example 142, read-out: HTT IC50 (decrease in CJ mRNA levels)
[10] = Homo sapiens, gene panel, CJ qPCR, protocol of Example 142, read-out: MYB IC50 (decrease in CJ mRNA levels)
[11] = Homo sapiens, K562, 24 h, Table 13A
[12] = Homo sapiens, RT-qPCR panel, canonical junction mRNA, compound concentration having 50% response in CJ decrease
[13] = Homo sapiens, 24 h, decrease in CJ mRNA, A673 or K562 cells, 24 hours treatment, RT-qPCR, read-out: HTT CJ IC50
[14] = Homo sapiens, 24 h, A673 or K562 cells, 24 hours treatment, RT-qPCR
[15] = Homo sapiens, RT-qPCR panel, canonical junction mRNA, compound concentration having 50% response in CJ decrease, read-out: HTT IC50 (decrease in CJ mRNA levels)
[16] = Homo sapiens, 24 h, decrease in CJ mRNA, A673 or K562 cells, 24 hours treatment, RT-qPCR, read-out: MYB CJ IC50
[17] = Homo sapiens, RT-qPCR panel, canonical junction mRNA, compound concentration having 50% response in CJ decrease, read-out: MYB IC50 (decrease in CJ mRNA levels)
[18] = RT-qPCR panel, canonical junction mRNA, compound concentration having 50% response in CJ decrease

SMILES	IC50 (Target C [1]; [7]) [nM]	IC50 (Target C [2]; [8]) [nM]	IC50 (MYB [3]; [7]) [nM]	IC50 (HTT [4]; [7]) [nM]	IC50 (SMN2; [8]) [nM]	IC50 (HTT [5]; [9]) [nM]	IC50 (MYB [6]; [10]) [nM]	IC50 (Target C [1]; [11]) [nM]	IC50 (Target C [2]; [12]) [nM]	IC50 (MYB [3]; [11]) [nM]	IC50 (HTT [4]; [11]) [nM]	IC50 (SMN2; [12]) [nM]	IC50 (HTT [5]; [13]) [nM]	AC50 (HTT [5]; [14]) [nM]	IC50 (HTT [5]; [15]) [nM]	IC50 (MYB [6]; [16]) [nM]	AC50 (MYB [6]; [14]) [nM]	IC50 (MYB [6]; [17]) [nM]	also measured
COc1nc(-c2ccc(O[C@@H]3C[C@H]4CC[C@@H](C3)N4)nn2)ccc1-c1ccnc(C)c1 [Compound 963]	> 10000	> 10000	1000 to 10000	1000 to 10000	1000 to 10000	1000 to 10000	1000 to 10000	–	–	–	–	–	–	–	–	–	–	–	–
c1n[nH]cc1-c1ccc(-c2ccc(N3CCC4(CC3)CNC4)nn2)c2[nH]ncc12 [Compound 238]	–	–	–	–	–	–	–	> 10000	> 10000	> 10000	> 10000	> 10000	> 10000	> 10000	> 10000	> 10000	> 10000	> 10000	–
Cc1ncc(-c2ccc(-c3ccc(N(C)C4CC(C)(C)NC(C)(C)C4)nn3)c3scnc23)o1 [Compound 342]	–	–	–	–	–	–	–	100 to 1000	1000 to 10000	100 to 1000	100 to 1000	< 100	100 to 1000	100 to 1000	100 to 1000	1000 to 10000	1000 to 10000	1000 to 10000	–
CCN(c1ccc(-c2ccc(-c3cn[nH]c3)c3cn[nH]c23)nn1)C1CCNCC1 [Compound 274]	–	–	–	–	–	–	–	1000 to 10000	> 10000	1000 to 10000	1000 to 10000	1000 to 10000	> 10000	> 10000	> 10000	> 10000	> 10000	> 10000	–
COc1nc(-c2ccc(N3CCC(NC4CC4)C3)nn2)ccc1-n1cccn1 (stereo not shown) [Compound 958]	> 10000	> 10000	> 10000	> 10000	1000 to 10000	> 10000	> 10000	–	–	–	–	–	–	–	–	–	–	–	–
c1nc2c(-c3cn[nH]c3)ccc(-c3ccc(N4CCC5(CCNC5)CC4)nn3)c2s1 [Compound 192]	–	–	–	–	–	–	–	> 10000	> 10000	> 10000	> 10000	> 10000	> 10000	> 10000	> 10000	> 10000	> 10000	> 10000	–
FC1(F)CC2CC(Oc3ccc(-c4ccc(-c5cn[nH]c5)c5cn[nH]c45)nn3)CC1N2 (stereo not shown) [Compound 374, 7-[6-({6,6-difluoro-8-azabicyclo[3.2.1]octan-3-yl}oxy)pyridazin-3-yl]-4-(1H-pyrazol-4-yl)-1H-indazole]	–	–	–	–	–	–	–	–	–	–	–	–	–	–	–	–	–	–	IC50 (Target C [1]; Table 13A, 24 hours): > 10000 nM; IC50 (Target C [2]; [18]): > 10000 nM; IC50 (MYB [3]; Table 13A, 24 hours): > 10000 nM; IC50 (HTT [4]; Table 13A, 24 hours): > 10000 nM; IC50 (SMN2; [18]): > 10000 nM; IC50 (HTT [5]; RT-qPCR panel, canonical junction mRNA, compound concentration having 50% response in CJ decrease, read-out: HTT IC50 (decrease in CJ mRNA levels)): > 10000 nM; IC50 (HTT [5]; decrease in CJ mRNA, A673 or K562 cells, 24 hours treatment, RT-qPCR, read-out: HTT CJ IC50): > 10000 nM; IC50 (MYB [6]; RT-qPCR panel, canonical junction mRNA, compound concentration having 50% response in CJ decrease, read-out: MYB IC50 (decrease in CJ mRNA levels)): > 10000 nM; IC50 (MYB [6]; decrease in CJ mRNA, A673 or K562 cells, 24 hours treatment, RT-qPCR, read-out: MYB CJ IC50): > 10000 nM
c1nc2c(-c3cn[nH]c3)ccc(-c3cnc(N4CCNC(C5CC5)C4)nn3)c2s1 (stereo not shown) [Compound 414]	–	–	–	–	–	–	–	100 to 1000	1000 to 10000	1000 to 10000	100 to 1000	1000 to 10000	100 to 1000	100 to 1000	100 to 1000	1000 to 10000	> 10000	1000 to 10000	–
CN(c1ncc(-c2ccc(-c3cn[nH]c3)c3ncsc23)nn1)[C@@H]1C[C@H]2CCC[C@@H](C1)N2 [Compound 449, (1S,5R)—N-methyl-N-[6-[4-(1H-pyrazol-4-yl)-1,3-benzothiazol-7-yl]-1,2,4-triazin-3-yl]-9-azabicyclo[3.3.1]nonan-3-amine]	–	–	–	–	–	–	–	< 100	< 100	100 to 1000	< 100	< 100	–	–	< 100	–	–	100 to 1000	–
CN(c1ncc(-c2ccc(-c3cn[nH]c3)c3ncsc23)nn1)[C@@H]1C[C@H]2CC[C@@H](C1)N2 [Compound 420]	–	–	–	–	–	–	–	< 100	100 to 1000	100 to 1000	< 100	100 to 1000	–	< 100	< 100	100 to 1000	100 to 1000	100 to 1000	–
COc1cc(-c2ccc(N(C)[C@@H]3C[C@H]4CC[C@@H](C3)N4)nn2)ccc1-c1cn[nH]c1 [Compound 914]	100 to 1000	100 to 1000	1000 to 10000	1000 to 10000	< 100	100 to 1000	1000 to 10000	–	–	–	–	–	–	–	–	–	–	–	–
CN(c1ncc(-c2ccc(-c3cn[nH]c3)c3ncsc23)nn1)C1CC2CCC(C1)N2 (stereo not shown) [Compound 443]	–	–	–	–	–	–	–	< 100	100 to 1000	100 to 1000	< 100	100 to 1000	–	–	< 100	–	–	1000 to 10000	–
COc1nc(-c2ccc(N(C)C3CC(C)(C)NC(C)(C)C3)nn2)ccc1-n1cccn1 [Compound 935]	100 to 1000	100 to 1000	100 to 1000	100 to 1000	100 to 1000	100 to 1000	100 to 1000	–	–	–	–	–	–	–	–	–	–	–	–
c1nc2c(-c3cn[nH]c3)ccc(-c3ccc(N[C@@H]4C[C@H]5COC[C@@H](C4)N5)nn3)c2s1 [Compound 354, (endo)-N-{6-[4-(1H-pyrazol-4-yl)-1,3-benzothiazol-7-yl]pyridazin-3-yl}-3-oxa-9-azabicyclo[3.3.1]nonan-7-amine]	–	–	–	–	–	–	–	100 to 1000	100 to 1000	100 to 1000	100 to 1000	< 100	–	100 to 1000	< 100	100 to 1000	1000 to 10000	100 to 1000	–
CN(c1ccc(-c2ccc(-c3cn[nH]c3)c3cn[nH]c23)nn1)C1CCNCC1 [Compound 273]	–	–	–	–	–	–	–	1000 to 10000	> 10000	1000 to 10000	> 10000	1000 to 10000	> 10000	> 10000	> 10000	> 10000	> 10000	> 10000	–
COc1cc(-c2ccc(-c3ccc(N(C)[C@@H]4C[C@H]5CC[C@@H](C4)N5)nn3)nc2OC)cnn1 [Compound 959]	100 to 1000	100 to 1000	100 to 1000	< 100	< 100	< 100	100 to 1000	–	–	–	–	–	–	–	–	–	–	–	–
CNC1CCN(c2ncc(-c3ccc(-n4cccn4)c4[nH]ncc34)nn2)C1 (stereo not shown) [Compound 485, N-methyl-1-[6-(7-pyrazol-1-yl-1H-indazol-4-yl)-1,2,4-triazin-3-yl]pyrrolidin-3-amine]	–	–	–	–	–	–	–	1000 to 10000	> 10000	1000 to 10000	1000 to 10000	1000 to 10000	–	–	1000 to 10000	–	–	1000 to 10000	–
CCOc1nc(-c2ccc(OC3CC4CC(F)(F)C(C3)N4)nn2)ccc1-c1cn[nH]c1 (stereo not shown) [Compound 970]	> 10000	> 10000	> 10000	> 10000	1000 to 10000	> 10000	> 10000	–	–	–	–	–	–	–	–	–	–	–	–
CN(c1ccc(-c2ccc(-c3cn[nH]c3)c3cn[nH]c23)nn1)[C@H]1[C@@H]2CNC[C@@H]21 [Compound 301]	–	–	–	–	–	–	–	> 10000	> 10000	1000 to 10000	> 10000	> 10000	> 10000	> 10000	> 10000	> 10000	> 10000	> 10000	–
